From US20240197869A1, “HYPERACTIVATORS OF MAMMALIAN DENDRITIC CELLS” (Corner Therapeutics, Inc., priority 2021, published 2024)
“Also recorded” adds a separate entry of the source.

Columns and labels:
[1] = test system: canine peripheral blood mononuclear cells (PBMCs); assay: Viability of canine PBMCs (CellTiter-Glo); assay type: cell-based; conditions: lipid combined with R848, 2 days, relative to R848 alone
Protocol: (§1) Isolation of PBMCs from Whole Blood. PBMCs were isolated from whole blood using density gradient centrifugation with Ficoll-Paque PLUS (Cytivia). Whole blood was diluted 1:1 with PBS, layered on top of Ficoll-Paque PLUS and centrifuged at 1000×g for 30 minutes at room temperature. PBMCs were collected, washed twice in PBS, and incubated with Ack lysis buffer (Lonza) to remove any remaining red blood cells.
(§2) Cell Culture and Stimulation. […] Cells were plated at 1×10^5 (canine cells) or 1×10^6 (human cells) per well in 96-well flat bottom tissue culture plates. Lyophilized Vaccigrade R848 (Invivogen) was reconstituted and diluted according to manufacturer's recommendations and added to cells at a final concentration of 1 μg/mL.
(§3) Quantification of Cell Viability.

human PBMCs [2] = assay: Cytokine secretion (IL-1β, IFNγ, TNFα) by human PBMCs; assay type: cell-based
Protocol: as §1, §2
Quantification of Cytokine Secretion. IL-1β secretion from human PBMCs was assessed using one of the following kits: ELISA MAX Deluxe Set Human IL-1β kit (Biolegend), Invitrogen Human IL-1β kit, or the Lumit™ Human IL-1β Immunoassay (Promega). IFNγ secretion from human PBMCs was assessed using the ELISA MAX Deluxe Set Human IFNγ (Biolegend) and TNFα secretion from human PBMCs was assessed using the Human TNFα Uncoated ELISA kit (Invitrogen). ELISAs were performed according to manufacturer's instructions with the following modifications: i) total sample+buffer volume for incubation was reduced from 100 μL to 50 μL; ii) the top standard was prepared at […], with two-fold dilutions to […]; and iii) sample incubation was completed overnight at 4 C on an orbital shaker. Lumit™ assays were performed according to manufacturer's instructions. IL-1β secretion from canine PBMCs was assessed using the Canine IL-1β/IL-1F2 DuoSet ELISA (R&D) according to manufacturer's instructions with the following modifications: i) total sample+buffer volume for incubation was reduced from 100 μL to 50 μL; ii) sample incubation was completed overnight at 4° C. on an orbital shaker. For all ELISAs, absorbance was measured at 450 nm, with a 570 nm correction, using a Spectramax M5e plate reader (Molecular Devices). For Lumit™ assays, luminescence was measured on all wavelengths using a Spectramax M5e plate reader (Molecular Devices) with an integration time of 500 ms. To determine cytokine concentrations in supernatants, sample concentrations were interpolated using a standard curve via 4PL analysis on GraphPad Prism 9 (GraphPad Software). The interpolated results of samples were then adjusted for any dilutions made to the supernatant.

human PBMCs [3] = assay: Viability of human PBMCs (CellTiter-Glo); assay type: cell-based; conditions: 2 days post-activation; lipids combined with R848
Protocol: as §1, §2, §3

[4] = test system: human memory CD4+ T cells; assay: Human moDC coculture with memory CD4 T cells: cytokine secretion; assay type: cell-based; conditions: moDC treated with R848 + lipid; limiting anti-CD3; 2 days after T cell addition
Description: Human moDC coculture with memory CD4 T cells. Human monocytes were isolated from leukopheresis products using Miltenyi StraightFrom LeukoPak CD14 microbeads as directed by manufacturer. Custom PBMC isolation microbead kits from Miltenyi were used to separate PBMCs from red blood cells and granulocytes from the same blood products. After PBMC purification, Miltenyi human memory CD4+ T cell isolation kits were used to negatively select the CD45RO+ fraction. Cells were cryogenically stored until ready for use in experiments.
Human monocytes were differentiated into dendritic cells as previously described using recombinant human GM-CSF and IL-4 for 6 days. moDCs were plated in R10 media at 5E4 cells/well into 96-well U-bottom microplates for hyperactivations. […] T cell stimulating anti-CD3 antibody was added into the culture (with or without blocking anti-IL-1beta antibody) prior to T cell addition. Autologous frozen memory CD4 T cells were thawed, resuspended in R10 media and added at 2.5×10^5 cells/well (ratio 1:5, DC:T cell). After two days incubation, cell culture supernatant was collected and used for measuring cytokine secretion. Commercially available kits such as Biolegend LegendPlex kits were used as directed by manufacturer's protocol to quantify cytokines of interest.
Four donors were tested with each experimental condition tested in triplicate. […]

human moDC = assay: Viability of human moDC with surfactant formulations of 22:0 Lyso PC; assay type: cell-based; conditions: solvent evaporation method with KP407, filtered, target 82.5 uM + R848
Protocol: Formulation of 22:0 Lyso PC with poloxamers. […] 22:0 Lyso PC was resuspended in the surfactant solution and agitated at 4° C. for an hour. Solutions were then brought to room temperature to form micelles. Using 10× concentrated PBS, salts were added to the solution to stabilize molecular interactions and provide physiologically relevant osmolarity. Lipid solutions were either left unfiltered or filtered through a pore size of 0.45 um to remove insoluble lipid flakes. Lipids were further diluted and added onto human moDC cell cultures along with 1 ug/mL R848. Targeted lipid concentrations were based on the scenario where the lipid is fully bio-available prior to filtration. However, filtration of insoluble lipid reduces the bio-available supply of lipid. Thus, IL-1beta as a measure of hyperactivity can be used as an indicator of 22:0 Lyso PC incorporation into micelles and thus into solution. One day after hyperactivation, cell culture supernatants are collected to measure cytokine secretion, and cells are used to measure viability via Cell Titer-Glo.
Salts are added to the solution to stabilize the molecular interactions and bring the solution to a physiologically relevant osmolarity. The solutions are then either left unfiltered or filtered through a pore size of 0.45 um to remove insoluble lipid flakes or particle aggregates. […]

[5] = test system: murine, FLT3L-differentiated DC; assay: Cytokine secretion by murine FLT3L-differentiated BMDC (ELISA); assay type: cell-based, mouse
Protocol: Murine FLT3L-differentiated, bone marrow-derived DC (BMDC) generation. Leg femur and tibia were removed from mice, cut with scissors and flushed into sterile tubes. Bone marrow suspension was treated with ACK for 1 minute, then passed through a 40 um cell strainer. Cells were counted and resuspended in media consisting of complete IMDM containing 10% FBS, penicillin and streptomycin, and supplements of L-glutamine and sodium pyruvate (I10). Cells were then plated at 5E6 bone marrow cells per well in a P12 plate. Recombinant mouse FLT3L (Miltenyi) was added to cultures at 200 ng/mL. Differentiated cells were used for subsequent assays on day 9. The efficiency of differentiation was monitored by flow cytometry using BD Symphony A3, and CD11c+MHC-II+ cells were routinely above 80% of living cells. For each experiment, five mice were used to collect BM and to generate DCs.
Murine FLT3L-differentiated BMDC (FLT3L-BMDC) hyperactivation. BMDCs were washed with PBS and re-plated in FLT3L-containing 110 at a concentration of 1.5×10^5 cells/well. Stimuli were added to cultures at indicated concentrations for a final volume of 200 uL/well. Twenty-four hours post-stimulation, cell culture supernatant was collected after centrifugation and stored at −20° C. to measure cytokine secretion. IL-1b, IL-6, IL-12p40, and TNF-alpha ELISA were performed using eBioscience Ready-SET-Go! (now ThermoFisher) ELISA kits according to the manufacturer's protocols. Cell viability was measured using Promega's Cell Titer-Glo reagent kits.

[6] = lipid combined with R848, 2 days
[7] = R848 + 41 uM lipid in PBS or KP407, 24 h

## CCCCCCCCCCCCCCCCCCCCCC(=O)OC[C@@H](O)COP(=O)([O-])OCC[N+](C)(C)C [22:0 LYSO PC, 1-behenoyl-2-hydroxy-sn-glycero-3-phosphocholine]
[1]
  relative cell viability (in words): remain viable
[1]; listed as 22:0 LYSO
  relative cell viability (in words): did not significantly reduce relative cell viability
Human PBMCs [2]; lipid 82.5 μM combined with R848 1 μg/mL, 2 days
  IL-1β secretion (in words): elevated; also recorded: comparable or higher
Human PBMCs [2]; [6]
  IFNγ secretion, fold change per donor relative to R848 alone (in words): highest fold change per donor; also recorded: comparable or higher
  TNFα secretion, fold change per donor relative to R848 alone (in words): highest fold change per donor; also recorded: comparable or higher
Human PBMCs [3]
  human PBMC viability (in words): remain viable
[4]
  IFN-gamma (Th1 response) from cocultured memory CD4 T cells (in words): significantly stronger Th1 response
Human moDC
  reduction of cell viability: approximately 25%
[5]; 22:0 Lyso PC without R848
  IL-1beta secretion (in words): failed to induce IL-1beta secretion
[5]; [7]
  IL-6 secretion (in words): high TNF-alpha and IL-6 secretion
  TNF-alpha secretion (in words): high TNF-alpha and IL-6 secretion
[5]; R848 + lipid in KP407
  TNF-alpha secretion (in words): small boost in TNF-alpha secretion
[5]; formulated in KP407 + R848
  lipid concentration superior in supporting IL-1beta secretion while retaining cell viability: 41 µM
[5]; lipid formulated in 5% KP407 + R848 1 ug/mL, 24 h
  IL-1beta secretion (in words): induced IL-1beta secretion in a dose dependent manner
[5]; lipid resuspended in PBS, different concentrations, + R848 1 ug/mL, 24 h
  IL-1beta secretion (in words): unable to induce IL-1beta secretion
